Experimental data: patent US4889857A, “Quinolonecarboxylic acid compounds and pharmaceutical use thereof” (Yoshitomi Pharmaceutical Industries, Ltd., priority 1987, dated 1989)
In brackets after ≈: the same amount, converted by molar mass. Where two headings read alike, the source gives them in different places.

What was measured:
[1] = tested on: Staphylococcus aureus FDA 209P*; assay: Antibacterial activity in vitro (MIC), horse blood medium; assay type: cell-based; details: FDA209P
Protocol: (§1) The antibacterial activities in vitro (minimum inhibitory concentration, MIC, μg/ml) of the test compounds were measured according to the standard method of the Japanese Chemotherapy Society (Chemotherapy, Vol. 23, p.1126, 1974).
(§2) (Inoculum size: 10^6 cells/ml, Organisms with asterisk (*) were
(§3) cultivated in a 10% horse bloodadded medium.)

[2] = tested on: Staphylococcus aureus 308A-1; assay: Antibacterial activity in vitro (MIC); assay type: cell-based
[3] = tested on: Streptococcus pyogenes E-14; assay: Antibacterial activity in vitro (MIC); assay type: cell-based
[4] = tested on: Streptococcus pyogenes S-8; assay: Antibacterial activity in vitro (MIC); assay type: cell-based
[5] = tested on: Enterococcus faecalis LS-101; assay: Antibacterial activity in vitro (MIC); assay type: cell-based
[6] = tested on: Streptocccus pneumoniae Type 1; assay: Antibacterial activity in vitro (MIC); assay type: cell-based
[7] = tested on: Streptococcus sarivaris IFO 13956; assay: Antibacterial activity in vitro (MIC); assay type: cell-based
[8] = tested on: Acinetobacter calcoaceticus ATCC 13006; assay: Antibacterial activity in vitro (MIC); assay type: cell-based
Protocol: as §1, §2, §3

[9] = tested on: Bacillus subtilis PCT 219; assay: Antibacterial activity in vitro (MIC); assay type: cell-based
Protocol: as §1, §2, §3

[10] = tested on: Citrobacter freundii IFO 12681; assay: Antibacterial activity in vitro (MIC); assay type: cell-based; details: IFO12681, inoculum 10^6 cells/ml
Protocol: as §1, §2, §3

[11] = tested on: Corynebacterium diphtheriae Tronto; assay: Antibacterial activity in vitro (MIC); assay type: cell-based
Protocol: as §1, §2, §3

[12] = tested on: Escherichia coli NIHJ JC-2; assay: Antibacterial activity in vitro (MIC); assay type: cell-based
Protocol: as §1, §2, §3

[13] = tested on: Escherichia coli O-111; assay: Antibacterial activity in vitro (MIC); assay type: cell-based; details: O111, inoculum 10^6 cells/ml
Protocol: as §1, §2, §3

[14] = tested on: Escherichia coli T-7; assay: Antibacterial activity in vitro (MIC); assay type: cell-based; details: T7, inoculum 10^6 cells/ml
Protocol: as §1, §2, §3

[15] = tested on: Klebsiella pneumoniae DT; assay: Antibacterial activity in vitro (MIC); assay type: cell-based
Protocol: as §1, §2, §3

[16] = tested on: Morganella morganii IFO 3168; assay: Antibacterial activity in vitro (MIC); assay type: cell-based; details: IFO3168, inoculum 10^6 cells/ml, read-out: MIC
Protocol: as §1, §2, §3

[17] = tested on: Pediococcus damnosus IFO 3895; assay: Antibacterial activity in vitro (MIC); assay type: cell-based
Protocol: as §1, §2, §3

[18] = tested on: Proteus mirabilis IFO 3849; assay: Antibacterial activity in vitro (MIC); assay type: cell-based; details: IFO3849, inoculum 10^6 cells/ml, read-out: MIC
Protocol: as §1, §2, §3

[19] = tested on: Proteus vulgaris IFO 3988; assay: Antibacterial activity in vitro (MIC); assay type: cell-based
Protocol: as §1, §2, §3

[20] = tested on: Pseudomonas aeruginosa IFO 12582; assay: Antibacterial activity in vitro (MIC); assay type: cell-based
Protocol: as §1, §2, §3

[21] = tested on: Pseudomonas aeruginosa U-31; assay: Antibacterial activity in vitro (MIC); assay type: cell-based; details: U31, inoculum 10^6 cells/ml, read-out: MIC
Protocol: as §1, §2, §3

[22] = tested on: Pseudomonas putida IFO 12996; assay: Antibacterial activity in vitro (MIC); assay type: cell-based; details: IFO12996, inoculum 10^6 cells/ml, read-out: MIC
Protocol: as §1, §2, §3

[23] = tested on: Serratia marcescens IFO 12648; assay: Antibacterial activity in vitro (MIC); assay type: cell-based
Protocol: as §1, §2, §3

[24] = tested on: Shigella flexneri EW-10; assay: Antibacterial activity in vitro (MIC); assay type: cell-based; details: EW10, inoculum 10^6 cells/ml
Protocol: as §1, §2, §3

[25] = tested on: Shigella sonnei EW-33; assay: Antibacterial activity in vitro (MIC); assay type: cell-based; details: EW33, inoculum 10^6 cells/ml
Protocol: as §1, §2, §3

[26] = tested on: Shigella typhosa Boxhill-58; assay: Antibacterial activity in vitro (MIC); assay type: cell-based
Protocol: as §1, §2, §3

[27] = tested on: Staphylococcus aureus 1840; assay: Antibacterial activity in vitro (MIC); assay type: cell-based
Protocol: as §1, §2, §3

[28] = tested on: Staphylococcus aureus FDA 209P; assay: Antibacterial activity in vitro (MIC); assay type: cell-based; details: FDA209P
Protocol: as §1, §2, §3

[29] = tested on: Staphylococcus epidermidis ATCC 12228; assay: Antibacterial activity in vitro (MIC); assay type: cell-based
Protocol: as §1, §2, §3

[30] = tested on: Streptococcus lactis IFO 12546; assay: Antibacterial activity in vitro (MIC); assay type: cell-based; details: Lactococcus lactis, IFO12546; inoculum 10^6 cells/ml; 10% horse blood-added medium; read-out: MIC
Protocol: as §1, §2, §3

[31] = tested on: Streptococcus sp. IFO 3535; assay: Antibacterial activity in vitro (MIC); assay type: cell-based; details: IFO3535, inoculum 10^6 cells/ml, 10% horse blood-added medium, read-out: MIC
Protocol: as §1, §2, §3

[32] = tested on: Streptococcus viridans America; assay: Antibacterial activity in vitro (MIC); assay type: cell-based
Protocol: as §1, §2, §3

[33] = tested on: Xanthomonas maltophilia IFO 12690; assay: Antibacterial activity in vitro (MIC); assay type: cell-based; details: Stenotrophomonas maltophilia, IFO12690; inoculum 10^6 cells/ml
Protocol: as §1, §2, §3

[34] = tested on: Aerobacter aerogenes IFO 12979; assay: Antibacterial activity in vitro (MIC); assay type: cell-based; details: Klebsiella aerogenes, IFO12979
[35] = tested on: Pseudomonas cepacia 739; assay: Antibacterial activity in vitro (MIC); assay type: cell-based; details: Burkholderia cepacia, inoculum 10^6 cells/ml
[36] = tested on: E. coli KC-14; assay: MIC of the infecting organism (Experiment 2); assay type: cell-based; details: Escherichia coli, KC14
Protocol: (§4) Experimental infection was caused by inoculating male mice intraperitoneally with each organism. Each of the test compounds was administered orally to the mice, one hour after the inoculation. The therapeutic effect of each compounds was judged by using a 50% effective dose (ED50) from the survival rate on day 7 after injection by the Probit method as described in Proc. Soc. Exp. Biol. Med., Vol. 57, p.261-264, 1944. The Minimum inhibitory concentrations (MIC) were also measured.

[37] = tested on: S. aureus Smith; assay: MIC of the infecting organism (Experiment 2); assay type: cell-based; details: Staphylococcus aureus; Table 2; read-out: MIC
Protocol: as §4

[38] = tested on: Micrococcus luteus IFO 12708; assay: microbe, parasite or virus in culture; details: IFO12708
[39] = inoculum 10^6 cells/ml, 10% horse blood-added medium, read-out: MIC
[40] = inoculum 10^6 cells/ml, read-out: MIC

CNCC1CN(c2c(F)cc3c(=O)c(C(=O)O)cn(C4CC4)c3c2F)CCO1 (stereo not shown) [Compound A, 1-cyclopropyl-6,8-difluoro-1,4,-dihydro-7-[2-(methylaminomethyl)morpholino]-4-oxoquinoline-3-carboxylic acid]
MIC [1]: 0.025 µg/mL (≈ 0.0636 µM)
MIC ([2]; 308A1): 0.05 µg/mL (≈ 0.127 µM)
MIC ([3]; E14): 0.1 µg/mL (≈ 0.254 µM)
MIC ([4]; S8): 0.1 µg/mL (≈ 0.254 µM)
MIC ([5]; LS101): 0.1 µg/mL (≈ 0.254 µM)
MIC [6]: 0.05 µg/mL (≈ 0.127 µM)
MIC ([7]; IFO13956): 0.2 µg/mL (≈ 0.508 µM)
MIC ([8]; ATCC13006): 0.39 µg/mL (≈ 0.991 µM)
MIC ([9]; PCT219, inoculum 10^6 cells/ml, read-out: MIC): 0.012 µg/mL (≈ 0.0305 µM)
MIC [10]: 0.2 µg/mL (≈ 0.508 µM)
MIC [11]: 0.025 µg/mL (≈ 0.0636 µM)
MIC ([12]; NIHJJC2): 0.1 µg/mL (≈ 0.254 µM)
MIC [13]: 0.2 µg/mL (≈ 0.508 µM)
MIC [14]: 0.1 µg/mL (≈ 0.254 µM)
MIC [15]: 0.2 µg/mL (≈ 0.508 µM)
MIC [16]: 1.56 µg/mL (≈ 3.97 µM)
MIC ([17]; IFO3895): 0.39 µg/mL (≈ 0.991 µM)
MIC [18]: 1.56 µg/mL (≈ 3.97 µM)
MIC ([19]; IFO3988): 0.78 µg/mL (≈ 1.98 µM)
MIC ([20]; IFO12582): 3.13 µg/mL (≈ 7.96 µM)
MIC [21]: 1.56 µg/mL (≈ 3.97 µM)
MIC [22]: 1.56 µg/mL (≈ 3.97 µM)
MIC ([23]; IFO12648): 0.78 µg/mL (≈ 1.98 µM)
MIC [24]: 0.025 µg/mL (≈ 0.0636 µM)
MIC [25]: 0.025 µg/mL (≈ 0.0636 µM)
MIC [26]: 0.05 µg/mL (≈ 0.127 µM)
MIC [27]: 0.1 µg/mL (≈ 0.254 µM)
MIC [28]: 0.025 µg/mL (≈ 0.0636 µM)
MIC ([29]; ATCC12228): 0.05 µg/mL (≈ 0.127 µM)
MIC [30]: 1.56 µg/mL (≈ 3.97 µM)
MIC [31]: 1.56 µg/mL (≈ 3.97 µM)
MIC [32]: 0.2 µg/mL (≈ 0.508 µM)
MIC [33]: 0.1 µg/mL (≈ 0.254 µM)
MIC [34]: 0.2 µg/mL (≈ 0.508 µM)
MIC [35]: 1.56 µg/mL (≈ 3.97 µM)
MIC ([36]; Table 2, read-out: MIC): 0.05 µg/mL
MIC [37]: 0.012 µg/mL
MIC [38]: 0.39 µg/mL (≈ 0.991 µM)

CC1COc2c(N3CCN(C)CC3)c(F)cc3c(=O)c(C(=O)O)cn1c23 (stereo not shown) [OFLX, 9-fluoro-3-methyl-10-(4-methyl-1-piperazinyl)-7-oxo-2,3-dihydro-7H-pyrido[1,2,3-de][1,4]-benzoxazine-6-carboxylic acid]
MIC [1, 39]: 0.2 µg/mL (≈ 0.553 µM)
MIC ([2]; 308A1, inoculum 10^6 cells/ml, read-out: MIC): 0.39 µg/mL (≈ 1.08 µM)
MIC ([3]; E14, inoculum 10^6 cells/ml, 10% horse blood-added medium, read-out: MIC): 0.78 µg/mL (≈ 2.16 µM)
MIC ([4]; S8, inoculum 10^6 cells/ml, 10% horse blood-added medium, read-out: MIC): 0.78 µg/mL (≈ 2.16 µM)
MIC ([5]; LS101, inoculum 10^6 cells/ml, 10% horse blood-added medium, read-out: MIC): 0.78 µg/mL (≈ 2.16 µM)
MIC [6, 39]: 0.78 µg/mL (≈ 2.16 µM)
MIC ([7]; IFO13956, inoculum 10^6 cells/ml, 10% horse blood-added medium, read-out: MIC): 3.13 µg/mL (≈ 8.66 µM)
MIC ([8]; ATCC13006, inoculum 10^6 cells/ml, read-out: MIC): 0.2 µg/mL (≈ 0.553 µM)
MIC ([9]; PCT219): 0.05 µg/mL (≈ 0.138 µM)
MIC [10]: 0.05 µg/mL (≈ 0.138 µM)
MIC [11, 39]: 0.2 µg/mL (≈ 0.553 µM)
MIC ([12]; NIHJJC2, inoculum 10^6 cells/ml, read-out: MIC): 0.1 µg/mL (≈ 0.277 µM)
MIC [13]: 0.05 µg/mL (≈ 0.138 µM)
MIC [14]: 0.05 µg/mL (≈ 0.138 µM)
MIC [15, 40]: 0.1 µg/mL (≈ 0.277 µM)
MIC [16]: 0.1 µg/mL (≈ 0.277 µM)
MIC ([17]; IFO3895, inoculum 10^6 cells/ml, 10% horse blood-added medium, read-out: MIC): 0.2 µg/mL (≈ 0.553 µM)
MIC [18]: 0.39 µg/mL (≈ 1.08 µM)
MIC ([19]; IFO3988, inoculum 10^6 cells/ml, read-out: MIC): 0.1 µg/mL (≈ 0.277 µM)
MIC ([20]; IFO12582, inoculum 10^6 cells/ml, read-out: MIC): 1.56 µg/mL (≈ 4.32 µM)
MIC [21]: 0.78 µg/mL (≈ 2.16 µM)
MIC [22]: 1.56 µg/mL (≈ 4.32 µM)
MIC ([23]; IFO12648, inoculum 10^6 cells/ml, read-out: MIC): 0.2 µg/mL (≈ 0.553 µM)
MIC [24]: 0.05 µg/mL (≈ 0.138 µM)
MIC [25]: 0.025 µg/mL (≈ 0.0692 µM)
MIC [26]: 0.025 µg/mL (≈ 0.0692 µM)
MIC [27, 40]: 1.56 µg/mL (≈ 4.32 µM)
MIC [28, 40]: 0.2 µg/mL (≈ 0.553 µM)
MIC ([29]; ATCC12228, inoculum 10^6 cells/ml, 10% horse blood-added medium, read-out: MIC): 0.2 µg/mL (≈ 0.553 µM)
MIC [30]: 6.25 µg/mL (≈ 17.3 µM)
MIC [31]: 3.13 µg/mL (≈ 8.66 µM)
MIC [32, 39]: 1.56 µg/mL (≈ 4.32 µM)
MIC [33]: 0.05 µg/mL (≈ 0.138 µM)
MIC [34, 40]: 1.56 µg/mL (≈ 4.32 µM)
MIC [35]: 0.78 µg/mL (≈ 2.16 µM)
MIC [36]: 0.025 µg/mL
MIC [37]: 0.2 µg/mL
MIC [38]: 3.13 µg/mL (≈ 8.66 µM)
